Patent publication US20250268948A1, “COMPOSITIONS AND METHODS FOR TREATING POST ACUTE SEQUELAE OF SARS-COV-2 INFECTION (LONG COVID)” (priority 2022, published 2025)
Where two headings read alike, the source gives them in different places.

Assays:
human MSCs = test: Stem cell migration assay (percent closure of cell-free zone); conditions: for effect on MSC migration induced by curcumin and quercetin / effect on MSC migration induced by curcumin and resveratrol: 20 micromolar AMD3100 / 15 micromolar GM6001; for effect on MSC migration induced by curcumin and quercetin: FIG. 14; for effect on MSC migration induced by curcumin and resveratrol: FIG. 15; for EC50: Homo sapiens
Protocol: FIG. 1 is a microphotograph depicting cell migration using fluorescent readout and cell tracker green as a fluorescent marker of human UC-MSCs. […] The EC50 was determined as a measure of effectiveness of activating agents. […] An initial analysis of the cell free zone using Image J software was used to screen concentrations of activating agents for dose-response determination in further experiments.
The cell migration assays described above were set up as follows: One million cells/cell line were resuspended in 10 mL MSC-GRO™ serum free, quiescent medium (Vitro Biopharma Cat. No. SC00B17) containing […] mitomycin C (Sigma, Cat. No. M4287) to inhibit proliferation and incubated for 2 hours at room temperature with end-to-end agitation at 7 RPM. In some experiments, curcumin was used at 1 μM to block proliferation. Cells were centrifuged (450×g) for 7 minutes, washed with phosphate buffered saline (PBS) and then resuspended in 1 mL MSC-GRO™ low serum, complete 20 medium (Vitro Biopharma Cat. No. SC00B1) and plated at 25,000 cells/well in black 96 well, TC-coated cell culture plates, (ThermoScientific, Cat. No. 165305) containing cell seed-stoppers (Platypus, Cat. No. CMAUFL4) to form a cell free zone at the center of the well and incubated in 5% CO2, 1% O2, 94% N2 at 37° C. in a humidified chamber for 24 hrs. Plates used for culture of NSCs, were first treated with 10 μg/mL fibronectin (Sigma, Cat. No. F0556) for 2 hours at 37° C. Following washout with PBS (3×), cell seed stoppers were inserted, NSCs were plated at 25,000/well and incubated in 5% CO2, 1% O2, 94% N2 at 37° C. in a humidified chamber for 48 hrs. For studies of the effects of CXCR4 and MMP-9 inhibition, following 24 hours of cell culture, appropriate wells were dosed with 15 μM GM6001 and 20 μM AMD3100 for 6 hours. Cells were washed once with PBS then incubated in serum free, MSC-GRO™ (Vitro Biopharma Cat. No. SC00B17) containing 5 μM Cell Tracker Green CMFDA (Molecular Probes, Cat. No. C7025) at 37° C. for 30 minutes. The wells were then washed with serum free, MSC-Gro™ (Vitro Biopharma Cat. No. SC00B17) and incubated for 30 minutes at 37° C. Cells were washed once with PBS and this was replaced with MSC-GRO™ serum free, quiescent medium (Vitro Biopharma Cat. No. SC00B1I7) containing different concentrations of activating agents. […] A TOPSEAL™ (PerkinElmer, Cat. No. 6050195) covered the plate for live-cell imaging in a BioTek Cytation3 Imaging Reader. […] The gas phase throughout the acquisition of kinetic data was 5% O2, 5% CO2 with the balance nitrogen maintained by a BioTek CO2/O2 gas controller. Images were saved as TIFF files to calculate percent closure using imaging data.

FGF-21 = test: qPCR gene expression analysis in human MSCs; format: cell-based; conditions: for FGF-21 expression increase: 250 μM VPA, 500 nM curcumin, up to 2 weeks, FIG. 13
Protocol: (§1) Beta actin was measured as a house-keeping gene. […] Gene expression was quantified by determining the amount of gene-specific DNA/total cDNA. Data are mean+/−SD of 4 replicates.
(§2) Native human umbilical cord-derived MSCs (Vitro Biopharma Cat. No. SC00A1) were expanded from cryopreservation in a T-25 TC-coated flasks (BD Falcon, Cat. No. 353108) in MSC-GRO™ low serum, complete medium (Vitro Biopharma Cat. No. SC00BI). Cells were subcultured and counted on a Beckerman-Coulter Z2 particle counter (range 10 μm-30 μm). Cells were plated at 10,000/cm^2 a TC-coated Greiner Bio-One T75 flask and maintained in MSC-GRO™ serum free, complete medium (Vitro Biopharma Cat. No. SC00B3) in a reduced 02 environment (1% O2, 5% CO2, 94% N2) at 37° C. in a humidified chamber. The MSCs were treated continuously for up to 2 weeks. Cultures were fed every three days. Cells were harvested using ACCUTASE™ (Innovative Cell Technologies Inc., Cat No AT-104) and centrifuged (450×g) for 7 minutes. Cell supernatant was aspirated off and cells were resuspended in 1 mL PBS and counted on a Beckerman-Coulter Z2 particle counter (range 10 μm-30 μm). Total RNA was extracted using RNeasy Mini Kit (Qiagen Cat. No. 74104). RNA was quantified using an absorbance measurement at 260 nm. RNA was converted to cDNA using Quantitect Reverse Transcription Kit (Qiagen Cat. No. 205310) in a thermocycler. RNA was incubated in the gDNA elimination reaction for 2 minutes at 42° C. then incubated in the reverse-transcription master mix for 15 minutes at 42° C. Immediately after, it was incubated at 95° C. for 3 minutes for inactivation. cDNA was sent to an outside lab (CU-Anschutz Metabolic Laboratory) for q-PCR to detect relative or absolute gene expression levels. cDNA was diluted 1:5 and iTaq Universal Supermix fluorescent probe (BioRad Cat. No. 172-5120) used to detect the threshold cycle (Ct) during PCR. Dilution factors and cDNA concentrations were calculated into recorded values then normalized to untreated hMSCs (Vitro Biopharma Cat. No. SC00A1).
(§3) Gene expression was quantified by determining the amount of gene-specific DNA/total cDNA. Data are mean+/−S.D. of 4 replicates.
(§4) Native human umbilical cord-derived MSCs (Vitro Biopharma Cat. No. SCOOA1) were expanded from cryopreservation in a T-25 TC-coated flasks (BD Falcon, Cat. No. 353108) in MSC-GRO™ low serum, complete medium (Vitro Biopharma Cat. No. SC00B1). Cells were subcultured and counted on a Beckerman-Coulter Z2 particle counter (range 10 μm-30 μm). […] The MSCs were treated continuously for up to 2 weeks. Cultures were fed every three days. Cells were harvested using ACCUTASE™ (Innovative Cell Technologies Inc., Cat No AT-104) and centrifuged (450×g) for 7 minutes. Cell supernatant was aspirated off and cells were resuspended in 1 mL PBS and counted on a Beckerman-Coulter Z2 particle counter (range 10 μm-30 μm).
(§5) Total RNA was extracted using RNeasy Mini Kit (Qiagen Cat. No. 74104). RNA was quantified using an absorbance measurement at 260 nm. RNA was converted to cDNA using Quantitect Reverse Transcription Kit (Qiagen Cat. No. 205310) in a thermocycler. RNA was incubated in the DNA elimination reaction for 2 minutes at 42° C. then incubated in the reverse-transcription master mix for 15 minutes at 42° C. Immediately after, it was incubated at 95° C. for 3 minutes for inactivation. cDNA was sent to an outside lab (CU-Anschutz Metabolic Laboratory) for q-PCR to detect relative or absolute gene expression levels. cDNA was diluted 1:5 and iTaq Universal Supermix fluorescent probe (BioRad Cat. No. 172-5120) used to detect the threshold cycle (Ct) during PCR. Dilution factors and cDNA concentrations were calculated into recorded values then normalized to untreated hMSCs (Vitro Biopharma Cat. No. SC00A1).

Oct 3/4 = test: qPCR gene expression analysis in human MSCs; format: cell-based; conditions: for Oct 3/4 expression increase: 250 μM VPA, 500 nM curcumin, compared to beta-actin, FIG. 13
Protocol: as §1, §2, §3, §4, §5

SIRT-1 = test: qPCR gene expression analysis in human MSCs; format: cell-based; conditions: up to 2 weeks; for SIRT-1 expression increase: 250 μM VPA, 500 nM curcumin, FIG. 13
Protocol: as §1, §2, §3, §4, §5

CXCR4 = test: qPCR gene expression analysis in human MSCs; format: cell-based; conditions: for CXCR4 expression increase: 250 μM VPA, 500 nM curcumin, up to 2 weeks, FIG. 13
Protocol: as §3, §4, §5

Hsp70 = test: qPCR gene expression analysis in human MSCs; format: cell-based; conditions: for Hsp70 expression increase: 250 μM VPA, 500 nM curcumin, up to 2 weeks, FIG. 13
Protocol: as §3, §4, §5

MSCs = test: Cell-based proliferation assay (Presto Blue); conditions: Homo sapiens
Protocol: (§6) The effects of fibroblast growth factor 2 (FGF-2), lithium, and VPA on stem cell proliferation were then investigated, using an assay based on Presto Blue, a fluorescent marker of cellular reduction. FIG. 8 is a line graph representation illustrating proliferation of different cell lines induced by increasing concentrations of FGF-b (FGF-2) after a 5 day exposure. Relative fluorescent units were measured using a FITC filter on a Modulus Microplate Reader and plotted as a function of FGF-2. The data were modeled by sigmoidal curve fitting to calculate EC50 values. […] Proliferation of these mesenchymal cells was stimulated by recombinant human FGF-2 with EC50 values in the range of 3 ng/mL to 6 ng/mL with maximal proliferative responses at about 10 ng/mL.

human fibroblast = conditions: read-out: EC50, human fibroblast migration induced by substance P, prior study; suspension culture system; Parenti et al. 1996; cited from earlier work
[1] = system: CAFs, primary fibroblasts and MSCs; test: Cell-based proliferation assay (Presto Blue); parameters: species or system human; conditions: 5 day exposure; FIG. 8
Protocol: as §6

[2] = curcumin at 500 nM, statistically significant

c1cc(CN2CCCNCCNCCCNCC2)ccc1CN1CCCNCCNCCCNCC1 [AMD3100]
effect on VPA-induced CB-MSC migration (human MSCs; 20 μM AMD3100, CXCR-4 inhibitor, FIG. 7): blocked the VPA-induced CB-MSC migration | effect on MSC migration induced by curcumin and quercetin (human MSCs): blocked MSC migration | effect on MSC migration induced by curcumin and resveratrol (human MSCs): blocked MSC migration

CNC(=O)[C@H](Cc1c[nH]c2ccccc12)NC(=O)[C@@H](CC(=O)NO)CC(C)C [GM6001]
effect on lithium induced CB-MSC migration (human MSCs; 15 μM GM6001, MMP-9 inhibitor, FIG. 7): blocked lithium induced CB-MSCs | effect on MSC migration induced by curcumin and quercetin (human MSCs): blocked MSC migration | effect on MSC migration induced by curcumin and resveratrol (human MSCs): blocked MSC migration

CCCC(=O)[O-].[Na+] [Na butyrate]
FGF-21 expression increase (FGF-21): lower levels | Oct 3/4 expression increase (Oct 3/4; up to 2 weeks): less expression activation | SIRT-1 expression increase (SIRT-1): significantly less effective | CXCR4 expression increase (CXCR4): lower levels | Hsp70 expression increase (Hsp70): lower levels

CC(/C=C/C(=O)NO)=C\[C@@H](C)C(=O)c1ccc(N(C)C)cc1 [TSA]
FGF-21 expression increase (FGF-21): lower levels | Oct 3/4 expression increase (Oct 3/4; up to 2 weeks): less expression activation | SIRT-1 expression increase (SIRT-1): significantly less effective | CXCR4 expression increase (CXCR4): lower levels | Hsp70 expression increase (Hsp70): lower levels

CCCC(CCC)C(=O)O [VPA, valproic acid]
EC50 (human MSCs; read-out: EC50, migration, increasing VPA in 200 μM lithium, MSCs, FIG. 6): 36 µM | concentration of maximum closure (human MSCs; VPA alone, FIG. 5): 100 µM | EC50 (MSCs; 120 h, increasing VPA in 200 μM lithium, MSCs, 5 day exposure, FIG. 10, read-out: EC50, proliferation): 39 µM | EC50 (MSCs; in the presence of 200 μM lithium, MSCs and NSCs, range over migration and proliferation assays, read-out: VPA concentration 50% effective in inducing cell proliferation and migration): 35 to 39 µM | EC50 (MSCs; in the presence of 200 μM lithium, MSCs and NSCs, read-out: VPA concentration 50% effective in inducing cell proliferation and migration, mean): 37 µM | Oct 3/4 expression increase vs untreated human MSCs (Oct 3/4; 31.25 μM VPA, 200 μM lithium, up to 2 weeks, FIG. 11): about 20 fold | Oct 3/4 expression increase (Oct 3/4; up to 2 weeks): about 20 fold | SIRT-1 expression increase vs untreated MSC (SIRT-1; 31.25 μM VPA, 200 μM lithium, FIG. 11): ~300 fold

COc1cc(/C=C/C(=O)CC(=O)/C=C/c2ccc(O)c(OC)c2)ccc1O [curcumin]
concentration at which curcumin blocked migration by apparent toxicity (human MSCs; 36-hour run, FIG. 4): greater than 1 μM | estimated LD50 (apparent toxicity, reduced cell number) (human MSCs; 36-hour run, FIG. 4): 3 µM | EC50 (human MSCs; 36 h, read-out: apparent EC50, curcumin-induced migration): 0.25 µM | FGF-21 expression increase compared to untreated cells (FGF-21; [2]): at least 20 fold | Oct 3/4 expression increase (Oct 3/4; up to 2 weeks): about 20 fold | Oct 3/4 expression increase compared to untreated cells (Oct 3/4; [2]): at least 10 fold | CXCR-4 expression increase compared to untreated cells (CXCR4; [2]): at least 20 fold | Hsp70 expression increase compared to untreated cells (Hsp70; [2]): at least 20 fold

CSCC[C@H](NC(=O)[C@H](CC(C)C)NC(=O)CNC(=O)[C@H](Cc1ccccc1)NC(=O)[C@H](Cc1ccccc1)NC(=O)[C@H](CCC(N)=O)NC(=O)[C@H](CCC(N)=O)NC(=O)[C@@H]1CCCN1C(=O)[C@H](CCCCN)NC(=O)[C@@H]1CCCN1C(=O)[C@@H](N)CCCNC(=N)N)C(N)=O [substance P]
MSC migration into cell-free zone (human MSCs; 3.7 nM substance P, 24 hours, human UC-MSCs, FIG. 1): induced MSC migration into the cell-free center of the well | migration (percent closure) dose-response (human MSCs; CB-MSCs, 0 to 18.5 nM, 24-hour live cell analysis, FIG. 2): migration increased in a dose-dependent manner | EC50 (human fibroblast): 0.0022 µM

CCCCC(=O)O [valeric acid]
FGF-21 expression increase (FGF-21): lower levels | Oct 3/4 expression increase (Oct 3/4; up to 2 weeks): less expression activation | SIRT-1 expression increase (SIRT-1): significantly less effective | CXCR4 expression increase (CXCR4): lower levels | Hsp70 expression increase (Hsp70): lower levels

FGF-2: recombinant human fibroblast growth factor 2
concentration of maximal proliferative responses [1]: about 10 ng/mL
